Assays:
Type in all cases: biochemical
[1] = target: HSD17B13 (Homo sapiens (Human), UniProt Q7Z5P4); assay: HSD17B13 enzymatic inhibition assay (150 nM or 50 nM HSD17B13); details: 50 nM HSD17B13; read-out: Inhibition of 50 nM of HSD17B13 IC50
[2] = target: HSD17B1 (Homo sapiens (Human), UniProt P14061); assay: HSD17B1 enzymatic blocking assay; details: 25 μM Estradiol, 500 μM NAD; read-out: Inhibition of HSD17B1 IC50
Description: To screen compounds of the disclosure for their ability to block HSD17B1 function, an enzymatic blocking assay was performed. For the assay, HSD17B1 activity was measured by detecting NADH formation from oxidation of Estradiol using a NADH Glo luminescence assay (Promega, #Cat. No. G9062). […] Compounds were incubated with the enzyme for 30 minutes at room temperature. […] DMSO at a concentration of 0.5% was used as a negative control and a ‘no substrate’ control was used a positive control in the assay. Detection reagent was then added as per manufacturer's instructions, and the plate was subsequently incubated in the dark for 1 hour at room temperature, NADH generated was detected in the luminescence mode on the Envision Perkin Elmer plate reader. The IC50 values were determined using Dotmatics analysis software.

[3] = target: HSD17B2 (Homo sapiens (Human), UniProt P37059); assay: HSD17B2 enzymatic blocking assay; details: 1.8 μM Estradiol, 650 μM NAD; read-out: Inhibition of HSD17B2 IC50
Description: To screen compounds of the disclosure for their ability to block HSD17B2 function, an enzymatic blocking assay was performed. For the assay, HSD17B2 activity was measured by detecting NADH formation from oxidation of Estradiol using a NADH Glo luminescence assay (Promega, #Cat. No. G9062). Compounds of the disclosure were evaluated in a dose titration assay where the compounds were titrated at 10-point dose curve using an Echo-555 liquid handling dispenser. HSD17B2 (SEQ ID NO: 3, expressed in mammalian cells) was added at a final concentration of 2 ng/μL in a buffer containing 50 mM Tris-HCl, pH 7.5, Pluronic F-127 0.05%, Tween20 0.01%, BSA 0.01% into a low volume white 384-well assay plate. Compounds were incubated with the enzyme for 15 min at 20° C. The assay reaction was then initiated by addition of 1.8 μM Estradiol substrate (Sigma, catalog #E2758-250MG, CAS: 50-28-2) and 650 μM NAD co-factor, and the reaction mixture was incubated for 45 min at 20° C. DMSO at a concentration of 0.5% was used as a negative control and a ‘no substrate’ control was used a positive control in the assay. Detection reagent was then added as per manufacturer's instructions, and the plate was subsequently incubated in the dark for 1 hour at room temperature, NADH generated was detected in the luminescence mode on the Envision Perkin Elmer plate reader. The IC50 values were determined using Dotmatics analysis software.

HSD17B1, sequence (P14061 other isoform, or with tags, fused parts or gaps): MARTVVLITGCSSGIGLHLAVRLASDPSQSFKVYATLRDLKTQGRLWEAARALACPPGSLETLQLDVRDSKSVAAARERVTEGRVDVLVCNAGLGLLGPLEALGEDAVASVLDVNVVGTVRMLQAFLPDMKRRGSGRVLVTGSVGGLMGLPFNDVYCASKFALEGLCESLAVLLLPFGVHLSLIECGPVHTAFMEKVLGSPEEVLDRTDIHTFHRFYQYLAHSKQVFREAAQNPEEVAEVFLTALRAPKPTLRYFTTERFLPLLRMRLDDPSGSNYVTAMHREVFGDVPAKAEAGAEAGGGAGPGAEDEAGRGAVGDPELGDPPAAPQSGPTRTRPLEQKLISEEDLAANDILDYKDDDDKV
HSD17B2, sequence (P37059 other isoform, or with tags, fused parts or gaps): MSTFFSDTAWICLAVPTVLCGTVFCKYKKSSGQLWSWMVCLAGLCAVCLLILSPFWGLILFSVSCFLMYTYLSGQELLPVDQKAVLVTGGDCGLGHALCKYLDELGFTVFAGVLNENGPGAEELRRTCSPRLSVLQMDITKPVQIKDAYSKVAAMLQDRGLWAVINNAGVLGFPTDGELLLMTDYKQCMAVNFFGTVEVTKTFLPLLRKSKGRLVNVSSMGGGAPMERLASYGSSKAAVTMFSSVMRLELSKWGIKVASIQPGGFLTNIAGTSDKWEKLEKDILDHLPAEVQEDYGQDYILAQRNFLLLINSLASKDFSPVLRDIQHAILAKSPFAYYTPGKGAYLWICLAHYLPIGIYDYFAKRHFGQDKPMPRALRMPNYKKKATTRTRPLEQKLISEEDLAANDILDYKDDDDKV
HSD17B13, sequence (Q7Z5P4 other isoform, or with tags, fused parts or gaps): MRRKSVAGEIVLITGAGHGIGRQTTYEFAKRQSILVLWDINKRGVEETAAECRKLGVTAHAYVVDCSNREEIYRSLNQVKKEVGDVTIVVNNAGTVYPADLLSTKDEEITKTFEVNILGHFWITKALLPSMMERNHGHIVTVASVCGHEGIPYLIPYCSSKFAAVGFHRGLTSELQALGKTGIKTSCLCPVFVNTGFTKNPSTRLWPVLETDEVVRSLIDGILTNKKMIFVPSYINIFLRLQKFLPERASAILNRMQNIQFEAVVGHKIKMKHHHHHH

SMILES | IC50 [1] [µM] | IC50 [2] [µM] | IC50 [3] [µM]
O=C(NC1c2ccccc2Oc2ccc(C3CC3)cc21)c1ccc(C(F)(F)F)[nH]c1=O (stereo not drawn) [Compound 161, N-(2-cyclopropyl-9H-xanthen-9-yl)-2-oxo-6-(trifluoromethyl)-1,2-dihydropyridine-3-carboxamide] | 0.27 | 9.16 | 8.22
CCc1cc(C(=O)NC2c3ccc(C)cc3Oc3cc(C)ccc32)c(=O)[nH]c1C(F)(F)F [Compound 176, N-(3,6-dimethyl-9H-xanthen-9-yl)-5-ethyl-2-oxo-6-(trifluoromethyl)-1,2-dihydropyridine-3-carboxamide] | 0.02 | 6.43 | 28.3
Cc1ccc2c(c1)Oc1cc(C)ccc1C2NC(=O)c1cc(-c2ccccc2)c(C(F)(F)F)[nH]c1=O [Compound 177, N-(3,6-dimethyl-9H-xanthen-9-yl)-2-oxo-5-phenyl-6-(trifluoromethyl)-1,2-dihydropyridine-3-carboxamide] | 0.04 | 4.21 | 14.6
C=Cc1cc(C(=O)NC2c3ccc(C)cc3Oc3cc(C)ccc32)c(=O)[nH]c1C(F)(F)F [Compound 182, N-(3,6-dimethyl-9H-xanthen-9-yl)-2-oxo-6-(trifluoromethyl)-5-vinyl-1,2-dihydropyridine-3-carboxamide] | 0.02 | 5.16 | 10.3
Cc1ccc2c(c1)Oc1cc(C)ccc1C2NC(=O)c1cc(C2=CCCCC2)c(C(F)(F)F)[nH]c1=O [Compound 183, 5-(cyclohex-1-en-1-yl)-N-(3,6-dimethyl-9H-xanthen-9-yl)-2-oxo-6-(trifluoromethyl)-1,2-dihydropyridine-3-carboxamide] | 0.03 | 4.55 | 9.61
Cc1ccc2c(c1)Oc1cc(C)ccc1C2NC(=O)c1cnc(C(F)(F)F)[nH]c1=O [Compound 194, N-(3,6-dimethyl-9H-xanthen-9-yl)-6-oxo-2-(trifluoromethyl)-1,6-dihydropyrimidine-5-carboxamide] | 0.09 | 19.2 | 17.4
Cc1ccc2c(c1)Sc1cc(C)ccc1C2NC(=O)c1ccc(C(F)F)[nH]c1=O [Compound 282, 6-(difluoromethyl)-N-(3,6-dimethyl-9H-thioxanthen-9-yl)-2-oxo-1,2-dihydropyridine-3-carboxamide] | 0.14 | > 30 | > 100
CCC1CCC(NC(=O)c2ccc(C(F)(F)F)[nH]c2=O)c2ccc(C)cc21 (stereo not drawn) [Compound 300, N-(4-ethyl-6-methyl-1,2,3,4-tetrahydronaphthalen-1-yl)-2-oxo-6-(trifluoromethyl)-1,2-dihydropyridine-3-carboxamide] | 0.14 | 18 | 10.2
CCCc1sc2cc(C)ccc2c1NC(=O)c1ccc(C(F)(F)F)[nH]c1=O [Compound 308, N-(6-methyl-2-propylbenzo[b]thiophen-3-yl)-2-oxo-6-(trifluoromethyl)-1,2-dihydropyridine-3-carboxamide] | 0.07 | 15.4 | 16.9
CCc1sc2cc(C)ccc2c1NC(=O)c1ccc(C(F)(F)F)[nH]c1=O [Compound 309, N-(2-ethyl-6-methylbenzo[b]thiophen-3-yl)-2-oxo-6-(trifluoromethyl)-1,2-dihydropyridine-3-carboxamide] | 0.08 | 14.3 | 22.6
Cc1ccc2c(c1)Oc1cnccc1C2NC(=O)c1ccc(C(F)(F)F)[nH]c1=O (stereo not drawn) [Compound 328, N-(8-methyl-5H-chromeno[2,3-c]pyridin-5-yl)-2-oxo-6-(trifluoromethyl)-1,2-dihydropyridine-3-carboxamide] | 0.11 | 4.16 | > 100
Cc1ccc2c(c1)Oc1ccncc1C2NC(=O)c1ccc(C(F)(F)F)[nH]c1=O (stereo not drawn) [Compound 330, N-(7-methyl-10H-chromeno[3,2-c]pyridin-10-yl)-2-oxo-6-(trifluoromethyl)-1,2-dihydropyridine-3-carboxamide] | 0.08 | > 30 | 22.1
CCC[C@@H]1Oc2ccc(C)cc2[C@@H]1NC(=O)c1ccc(C(F)(F)F)[nH]c1=O [Compound 354, N-((2S,3S)-5-methyl-2-propyl-2,3-dihydrobenzofuran-3-yl)-2-oxo-6-(trifluoromethyl)-1,2-dihydropyridine-3-carboxamide] | 0.51 | > 30 | 29.3
CCC1Oc2ccc(C)cc2C1NC(=O)c1ccc(C(F)(F)F)[nH]c1=O (stereo not drawn) [Compound 355, N-(2-ethyl-5-methyl-2,3-dihydrobenzofuran-3-yl)-2-oxo-6-(trifluoromethyl)-1,2-dihydropyridine-3-carboxamide] | 0.52 | > 30 | 37.6
Cc1ccc2c(c1)OC(C)CC2NC(=O)c1ccc(C(F)(F)F)[nH]c1=O (stereo not drawn) [Compound 405, N-(2,7-dimethylchroman-4-yl)-2-oxo-6-(trifluoromethyl)-1,2-dihydropyridine-3-carboxamide] | 0.16 | > 30 | > 100
CCCC1CC(NC(=O)c2ccc(C(F)(F)F)[nH]c2=O)c2ccc(C)cc2O1 (stereo not drawn) [Compound 406, N-(7-methyl-2-propylchroman-4-yl)-2-oxo-6-(trifluoromethyl)-1,2-dihydropyridine-3-carboxamide] | 0.23 | 28.8 | 54

Next, values leading:

IC50 [1] [µM] | IC50 [2] [µM] | IC50 [3] [µM] | SMILES
0.56 | > 30 | 23.7 | N#Cc1ccc(C(NC(=O)c2ccc(C(F)(F)F)[nH]c2=O)c2ccccc2)cc1 (stereo not drawn) [Compound 12A, N-((4-cyanophenyl)(phenyl)methyl)-2-oxo-6-(trifluoromethyl)-1,2-dihydropyridine-3-carboxamide]
0.06 | 28.7 | 64 | CCCc1cc(C(=O)NC2c3ccc(Cl)cc3Oc3cc(Cl)ccc32)c(=O)[nH]c1C(F)(F)F [Compound 178, N-(3,6-dichloro-9H-xanthen-9-yl)-2-oxo-5-propyl-6-(trifluoromethyl)-1,2-dihydropyridine-3-carboxamide]
2.11 | 27.9 | > 100 | CCCc1cc(CCC)cc(NC(=O)c2ccc(C(F)(F)F)[nH]c2=O)c1 [Compound 271, N-(3,5-dipropylphenyl)-2-oxo-6-(trifluoromethyl)-1,2-dihydropyridine-3-carboxamide]
0.27 | 8.39 | 9.16 | COc1ccc2c(c1)Sc1cc(OC)ccc1C2NC(=O)c1ccc(C(F)F)[nH]c1=O [Compound 274, 6-(difluoromethyl)-N-(3,6-dimethoxy-9H-thioxanthen-9-yl)-2-oxo-1,2-dihydropyridine-3-carboxamide]
0.16 | > 30 | 23 | Cc1ccc2c(c1)C(C)CCC2NC(=O)c1ccc(C(F)(F)F)[nH]c1=O (stereo not drawn) [Compound 302, N-(4,6-dimethyl-1,2,3,4-tetrahydronaphthalen-1-yl)-2-oxo-6-(trifluoromethyl)-1,2-dihydropyridine-3-carboxamide]
0.22 | > 30 | 8.32 | COc1ccc2c(c1)Sc1cccnc1C2NC(=O)c1ccc(C(F)(F)F)[nH]c1=O (stereo not drawn) [Compound 321, N-(7-methoxy-10H-thiochromeno[3,2-b]pyridin-10-yl)-2-oxo-6-(trifluoromethyl)-1,2-dihydropyridine-3-carboxamide]
0.22 | > 30 | 35.5 | COc1ccc2c(c1)Sc1cnccc1C2NC(=O)c1ccc(C(F)(F)F)[nH]c1=O (stereo not drawn) [Compound 323, N-(8-methoxy-5H-thiochromeno[2,3-c]pyridin-5-yl)-2-oxo-6-(trifluoromethyl)-1,2-dihydropyridine-3-carboxamide]
0.04 | > 30 | 56.4 | Cc1cnc2c(c1)Oc1ccccc1C2NC(=O)c1ccc(C(F)(F)F)[nH]c1=O (stereo not drawn) [Compound 324, N-(3-methyl-10H-chromeno[3,2-b]pyridin-10-yl)-2-oxo-6-(trifluoromethyl)-1,2-dihydropyridine-3-carboxamide]
0.16 | 12.5 | 69.2 | CCC1CC(NC(=O)c2ccc(C(F)(F)F)[nH]c2=O)c2ccc(C)cc2O1 (stereo not drawn) [Compound 407, N-(2-ethyl-7-methylchroman-4-yl)-2-oxo-6-(trifluoromethyl)-1,2-dihydropyridine-3-carboxamide]
